Experimental data published in patent US20130231472A1, “USE OF MOLECULAR MARKERS FOR THE PRECLINICAL PROFILING OF INHIBITORS OF ENZYMES HAVING HISTONE DEACETYLASE ACTIVITY” (priority 2002, published 2013).

Assays:
[1] = test system: splenocytes from leukemic mice (>75% blasts); assay: Apoptosis of cultured leukemic splenocytes/APL blasts (propidium iodide staining); format: cell-based; conditions: VPA 1 mM, 48 hours, FIG. 3B
Procedure: FIG. 3: (A) Secondary acute promyelocytic leukemias were induced in mice as described above. Leukemic mice were then treated with placebo (Ctrl), or VPA (400 mg/kg every 12 hours). Mice were sacrificed 48 hours after beginning of treatments, and then leukemic spleens were fixed and either stained for histological examination (hematoxylin-eosyn, left panels), or analyzed for the presence of apoptotic cells (TUNEL assay, right panels). (B) Secondary leukemias were obtained as above. Mice were sacrificed when leukemic invasion of peripheral organs was >75% (spleen). Splenocytes from healthy mice (taken as control, left panel), or from leukemic mice (>75% blasts, right panel) were put in culture and then treated with VPA (1 mM) for 48 hours. At the end of the treatment, apoptosis was measured by propidium iodide staining. The sub-G1 area indicates the hypodiploid DNA peak corresponding to cells with fragmented DNA undergoing apoptosis.
FIG. 5: Leukemic blasts were obtained from spleens of secondary leukemic mice with a >75% invasion of tumor cells, as assessed by histological examination. Cells were put in culture and treated with VPA (1 mM) for 48 hours, in the absence or in the presence of the indicated TRAIL and/or caspase 8 inhibitors as indicated. At the end of the treatment, apoptosis was measured as described above.

HDAC-3 = HDAC-3 pulse-chase analysis in HEK293T cells; format: cell-based, human; conditions: VPA pretreatment, FIG. 8B
Procedure: (§1) FIG. 8: Synthesis and degradation rate of HDAC-2 were analyzed by pulse metabolic labeling with ^35S-methionine and pulse-chase analyses. ^35S-labelled HDAC-2 was detected by HDAC-2 specific immune precipitation followed by SDS-PAGE separation and autoradiography. (A) Pulse labeling for 1 h was performed in F9 and HEK293T cells which had been left untreated or were pretreated with 1 mM VPA for 24 h. (B) For pulse chase analysis cells were left untreated or pretreated for 24 h with 1 mM VPA and labeled with ^35S-methionine for an additional hour in the absence or presence of VPA. After removal of ^35S-methionine and addition of non-labeled methionine the elimination of radiolabeled HDAC-2 was followed over a period of 6 h. A pulse chase analysis was also performed in HEK293T cells without VPA pretreatment and addition of VPA (indicated by the (+) row) only at the time when the chase period was started. From HEK293T cell extracts also HDAC-3 was precipitated for reference.

HDAC-2 [2] = assay: HDAC-2 protein levels in NIH3T3 cells; format: cell-based, mouse
HDAC-2 [3] = assay: Ubiquitinated HDAC-2 by His6-tagged ubiquitin / Ni2+-NTA agarose precipitation in HEK293T cells; format: cell-based, human; conditions: VPA 36 h, FIG. 10B
Procedure: FIG. 10: (A) The total amount of high molecular weight poly-ubiquitinated protein was not altered by VPA treatment of cells (left two lanes). The presence of ubiquitinated proteins in anti HDAC-2 immune precipitates is shown in the right part of the panel. Cells had either been left untreated, were exposed to VPA (1.5 mM, 24 h) or the proteasome inhibitor ALLN (5 μM, 24 h) or both. Ubiquitinated proteins in the precipitates were detected by Western blot analysis. For lane N a non-immune serum was used instead of the anti HDAC-2 antibody. (B) The presence of mono- and/or oligo-ubiquitinated HDAC-2 upon VPA treatment of HEK293T cells was determined by ectopic expression of His6-tagged ubiquitin followed by VPA-treatment for 36 h as indicated. The proteasome inhibitor MG-132 was added 4 h prior to analysis to enhance the accumulation of ubiquitinated proteins. Electrophoretic mobility and unaltered presence of non-ubiquitinated HDAC-2 were determined by Westernblot analysis of whole cell extracts (left panel). Ubiquitinated proteins were precipitated with Ni^2+-NTA-agarose and analyzed for presence of ubiquitinated HDAC-2 (middle panel) by Westernblot analysis of precipitates. Anti-HDAC-2 immuno-reactive bands with the expected mobility of mono- or poly-ubiquitinated HDAC-2 are indicated by a bracket.

TRAIL [4] = assay: TRAIL expression in spleen after in vivo treatment (RNAse protection assay); parameters: species or system mice; conditions: VPA 400 mg/kg every 12 hours, FIG. 4A
TRAIL [5] = assay: TRAIL expression in Calu-3 cells (quantitative PCR); format: cell-based, human; conditions: VPA 1 mM, FIG. 4B
Procedure: FIG. 4: (A) Secondary acute promyelocytic leukemias were induced in mice as described above. Leukemic mice or healthy mice (Ctrl) were then treated with placebo (lanes 1, 3), VPA (400 mg/kg every 12 hours), all-trans retinoic acid (a 21-day-release pellet containing 5 mg RA or placebo: lanes 8-9), and VPA plus retinoic acid (lanes 10-11). Mice were sacrificed 18 hours (lanes 4-5), or 36 hours after beginning of treatment (lanes 3, 6-7, 10-11): total RNAs were collected from the spleens (with a >75% invasion of leukemic blasts as assessed by Giemsa staining) and analyzed by RNAse protection assay to check for expression of TRAIL. Faf and GAPDH were used as controls, not affected by these treatments. (B) Calu-3 cells (a human, non-small cell lung cancer derived cell line) were treated with VPA (1 mM) for the indicated times. RNA was extracted and analyzed by quantitative PCR (Perkin-Elmer), using primers specific for TRAIL. GAPDH was used to normalize.

HDAC-2 mRNA = HDAC-2 mRNA levels in F9 cells (Northern blot); format: cell-based, murine; conditions: 1 mM VPA, FIG. 7
Procedure: FIG. 7: F9 cells or HEK 293T cells were treated for indicated times with 1 mM VPA and the levels of HDAC-2 mRNA were determined by Northern blot analysis from 5 μg polyA^+ RNA.

[6] = test system: acute promyelocytic leukemia mice; assay: Secondary acute promyelocytic leukemia mouse model: survival and splenomegaly; format: in vivo
Excerpt: FIG. 1: (A) Secondary acute promyelocytic leukemias were induced in mice. In brief, primary leukemias were induced in mice by injecting PMURAR expressing bone marrow cells into the tail veins. Mice with overt leukemias were euthanized, and leukemic cells were harvested from the spleen. Leukemic cells were re-injected i.v. (1×10^7 cells/mouse) in non-irradiated, syngeneic recipient mice. The secondary recipient mice developed overt leukemia in about 2-3 weeks. Leukemic mice or healthy mice (Ctrl) were then treated with placebo (lanes 1, 3), or VPA (400 mg/kg every 12 hours) for two consecutive weeks. (B) Leukemic mice were treated with placebo (lower, Ctrl) or VPA (400 mg/kg every twelve hours, upper) for one week. At the end of the treatment, mice were sacrificed, and spleens were photographed.

HDAC-2 [7] = assay: HDAC-2 pulse labeling and pulse-chase analysis in F9 cells; format: cell-based, murine; conditions: 1 mM VPA pretreatment 24 h
Procedure: as §1

SMILES: CCCC(CCC)C(=O)O [VPA, Valproic acid]
- apoptosis (propidium iodide, sub-G1) [1]: induces massive apoptosis of leukemic cells
- degradation of HDAC-3 (pulse-chase) (HDAC-3): not affected
- HDAC-2 protein levels (HDAC-2 [2]): reduced
- gross abundance of ubiquitinated proteins (anti His-tag) (HDAC-2 [3]): not altered
- oligo- and polyubiquitinated HDAC-2 bands in Ni2+-NTA-agarose precipitates (HDAC-2 [3]; MG-132 added 4 h prior to analysis): much more abundant
- TRAIL expression in spleen (TRAIL [4]; healthy mice): did not cause induction of TRAIL expression
- TRAIL expression in spleen (TRAIL [4]; leukemic mice, 18 or 36 hours): induced TRAIL for the entire duration of treatment
- TRAIL expression (quantitative PCR, normalized to GAPDH) (TRAIL [5]): strongly induced
- HDAC-2 mRNA levels (HDAC-2 mRNA): no response of HDAC-2 mRNA levels
- survival of leukemic mice ([6]; VPA 400 mg/kg every 12 hours for two consecutive weeks vs placebo, P<0.01, FIG. 1A): extended survival of leukemic mice in a statistically significant way
- splenomegaly caused by blast infiltration ([6]; VPA 400 mg/kg every twelve hours for one week vs placebo, FIG. 1B): dramatic reduction in the splenomegaly
- HDAC-2 synthesis rate (35S-methionine pulse labeling) (HDAC-2 [7]; FIG. 8A): No substantial difference in HDAC-2 synthesis rate
- half-life of HDAC-2 (pulse-chase) (HDAC-2 [7]; FIG. 8B): substantially decreased
